Measured values as given in patent US20230085307A1, “PYRIDAZINONE COMPOUND AND HERBICIDE” (NISSAN CHEMICAL CORPORATION, priority 2019, published 2023).

Legend:
late watergrass = test: Test Example 1: herbicidal activity, application before weed generation under submerged conditions (Table 16, symbol A); type: in vivo, late watergrass (Echinochloa oryzicola); conditions: 320 g/ha applied herbicide
In short: (§1)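 Submerged Wagner pots (alluvial soil, 4 cm water) sown with weed seeds and planted with 2.5-leaf rice seedlings; emulsifiable concentrate diluted in water applied to water surface on sowing day. Held in greenhouse at 25-30 °C; injury scored 0-5 by herbicidal rate after three weeks.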

Japanese bulrush = test: Test Example 1: herbicidal activity, application before weed generation under submerged conditions (Table 16, symbol B); type: in vivo, Japanese bulrush (Schoenoplectus juncoides); conditions: 320 g/ha applied herbicide
In short: as §1

oval-leafed pondweed = test: Test Example 1: herbicidal activity, application before weed generation under submerged conditions (Table 16, symbol C); type: in vivo, oval-leafed pondweed (Monochoria vaginalis); conditions: 320 g/ha applied herbicide
In short: as §1

barnyard grass [1] = test: Test Example 3: herbicidal effect by foliage application, Wagner pot (Table 18, symbol H); type: in vivo, barnyard grass (Echinochloa crus-galli); conditions: 320 g/ha
In short: (§2)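 Plants were sown in alluvial soil held under 0.1–0.5 cm standing water and grown 14 days in a greenhouse at 25–30 °C. An emulsifiable formulation, water-diluted to the set dose, was then sprayed onto the foliage, and effects were scored three weeks later using previously defined criteria.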

Chinese sprangletop = test: Test Example 3: herbicidal effect by foliage application, Wagner pot (Table 18, symbol D); type: in vivo, chinese sprangletop (Leptochloa chinensis); conditions: 320 g/ha
In short: as §2

rice flat sedge = test: Test Example 3: herbicidal effect by foliage application, Wagner pot (Table 18, symbol E); type: in vivo, rice flat sedge (Cyperus iria); conditions: 320 g/ha
In short: as §2

southern crabgrass [2] = test: Test Example 4: herbicidal effect by soil treatment (Table 19, symbol F); type: in vivo, southern crabgrass (Digitaria ciliaris); conditions: amount of applied herbicide 320 g/ha
In short: (§3)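 Pre-emergence style soil spray: seeds under ~1.5 cm sterilized diluvial soil received a uniform coat of emulsion diluted to the predetermined herbicide amount. Greenhouse 25–30° C; readout at week three on previously defined criteria.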

green foxtail [3] = test: Test Example 4: herbicidal effect by soil treatment (Table 19, symbol G); type: in vivo, green foxtail (Setaria viridis); conditions: amount of applied herbicide 320 g/ha
In short: as §3

barnyard grass [4] = test: Test Example 4: herbicidal effect by soil treatment (Table 19, symbol H); type: in vivo, barnyard grass (Echinochloa crus-galli); conditions: amount of applied herbicide 320 g/ha
In short: as §3

wild oat [5] = test: Test Example 4: herbicidal effect by soil treatment (Table 19, symbol I); type: in vivo, wild oat (Avena fatua); conditions: amount of applied herbicide 320 g/ha
In short: as §3

blackgrass [6] = test: Test Example 4: herbicidal effect by soil treatment (Table 19, symbol J); type: in vivo, blackgrass (Alopecurus myosuroides); conditions: amount of applied herbicide 320 g/ha
In short: as §3

Italian ryegrass [7] = test: Test Example 4: herbicidal effect by soil treatment (Table 19, symbol K); type: in vivo, Italian ryegrass (Lolium multiflorum); conditions: amount of applied herbicide 320 g/ha
In short: as §3

windgrass [8] = test: Test Example 4: herbicidal effect by soil treatment (Table 19, symbol L); type: in vivo, windgrass (Apera spica-venti); conditions: amount of applied herbicide 320 g/ha
In short: as §3

velvetleaf [9] = test: Test Example 4: herbicidal effect by soil treatment (Table 19, symbol M); type: in vivo, velvetleaf (Abutilon theophrasti); conditions: amount of applied herbicide 320 g/ha
In short: as §3

redroot pigweed [10] = test: Test Example 4: herbicidal effect by soil treatment (Table 19, symbol N); type: in vivo, redroot pigweed (Amaranthus retroflexus); conditions: amount of applied herbicide 320 g/ha
In short: as §3

lambsquarters [11] = test: Test Example 4: herbicidal effect by soil treatment (Table 19, symbol O); type: in vivo, lambsquarters (Chenopodium album); conditions: amount of applied herbicide 320 g/ha
In short: as §3

chickweed [12] = test: Test Example 4: herbicidal effect by soil treatment (Table 19, symbol P); type: in vivo, common chickweed (Stellaria media); conditions: amount of applied herbicide 320 g/ha
In short: as §3

false cleavers [13] = test: Test Example 4: herbicidal effect by soil treatment (Table 19, symbol Q); type: in vivo, false cleavers (Galium spurium); conditions: amount of applied herbicide 320 g/ha
In short: as §3

persian speedwell [14] = test: Test Example 4: herbicidal effect by soil treatment (Table 19, symbol R); type: in vivo, Persian speedwell (Veronica persica); conditions: amount of applied herbicide 320 g/ha
In short: as §3

southern crabgrass [15] = test: Test Example 5: herbicidal effect by foliage application, plastic box (Table 20, symbol F); type: in vivo, southern crabgrass (Digitaria ciliaris); conditions: foliage application, 320 g/ha, three weeks after application
In short: (§4)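 Plants were sown into sterilized diluvial soil under about 1.5 cm cover and kept in a greenhouse at 25° C. to 30° C. Fourteen days on, foliage received an even spray of the diluted emulsion. Herbicidal or crop effect was judged three weeks afterwards.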

green foxtail [16] = test: Test Example 5: herbicidal effect by foliage application, plastic box (Table 20, symbol G); type: in vivo, green foxtail (Setaria viridis); conditions: foliage application, 320 g/ha, three weeks after application
In short: as §4

barnyard grass [17] = test: Test Example 5: herbicidal effect by foliage application, plastic box (Table 20, symbol H); type: in vivo, barnyard grass (Echinochloa crus-galli); conditions: foliage application, 320 g/ha, three weeks after application
In short: as §4

wild oat [18] = test: Test Example 5: herbicidal effect by foliage application, plastic box (Table 20, symbol I); type: in vivo, wild oat (Avena fatua); conditions: foliage application, 320 g/ha, three weeks after application
In short: as §4

blackgrass [19] = test: Test Example 5: herbicidal effect by foliage application, plastic box (Table 20, symbol J); type: in vivo, blackgrass (Alopecurus myosuroides); conditions: foliage application, 320 g/ha, three weeks after application
In short: as §4

Italian ryegrass [20] = test: Test Example 5: herbicidal effect by foliage application, plastic box (Table 20, symbol K); type: in vivo, Italian ryegrass (Lolium multiflorum); conditions: foliage application, 320 g/ha, three weeks after application
In short: as §4

windgrass [21] = test: Test Example 5: herbicidal effect by foliage application, plastic box (Table 20, symbol L); type: in vivo, windgrass (Apera spica-venti); conditions: foliage application, 320 g/ha, three weeks after application
In short: as §4

velvetleaf [22] = test: Test Example 5: herbicidal effect by foliage application, plastic box (Table 20, symbol M); type: in vivo, velvetleaf (Abutilon theophrasti); conditions: foliage application, 320 g/ha, three weeks after application
In short: as §4

redroot pigweed [23] = test: Test Example 5: herbicidal effect by foliage application, plastic box (Table 20, symbol N); type: in vivo, redroot pigweed (Amaranthus retroflexus); conditions: foliage application, 320 g/ha, three weeks after application
In short: as §4

lambsquarters [24] = test: Test Example 5: herbicidal effect by foliage application, plastic box (Table 20, symbol O); type: in vivo, lambsquarters (Chenopodium album); conditions: foliage application, 320 g/ha, three weeks after application
In short: as §4

chickweed [25] = test: Test Example 5: herbicidal effect by foliage application, plastic box (Table 20, symbol P); type: in vivo, common chickweed (Stellaria media); conditions: foliage application, 320 g/ha, three weeks after application
In short: as §4

false cleavers [26] = test: Test Example 5: herbicidal effect by foliage application, plastic box (Table 20, symbol Q); type: in vivo, false cleavers (Galium spurium); conditions: foliage application, 320 g/ha, three weeks after application
In short: as §4

persian speedwell [27] = test: Test Example 5: herbicidal effect by foliage application, plastic box (Table 20, symbol R); type: in vivo, Persian speedwell (Veronica persica); conditions: foliage application, 320 g/ha, three weeks after application
In short: as §4

## CCCC(=O)Oc1c(C)nn(C)c(=O)c1-c1c(-c2ccc(OC)c(C)c2)sc2ccccc12 [1-069]
Late watergrass
  Herbicidal effect on A: late watergrass (grade 0-5): 3 (Herbicidal rate of 40% or more and less than 70%)
Japanese bulrush
  Herbicidal effect on B: Japanese bulrush (grade 0-5): 3 (Herbicidal rate of 40% or more and less than 70%)
oval-leafed pondweed
  Herbicidal effect on C: oval-leafed pondweed (grade 0-5): 3 (Herbicidal rate of 40% or more and less than 70%)
Barnyard grass [1]
  herbicidal effect on H (barnyard grass), rating 0-5: 3 (Herbicidal rate of 40% or more and less than 70%)
Chinese sprangletop
  herbicidal effect on D (Chinese sprangletop), rating 0-5: 0 (Herbicidal rate of 5% or less (almost no effect))
Rice flat sedge
  herbicidal effect on E (rice flat sedge), rating 0-5: 5 (Herbicidal rate of 90% or more (almost completely withered))
Southern crabgrass [2]
  herbicidal effect rating, F: southern crabgrass: 0 (Herbicidal rate of 5% or less (almost no effect))
Green foxtail [3]
  herbicidal effect rating, G: green foxtail: 0 (Herbicidal rate of 5% or less (almost no effect))
Barnyard grass [4]
  herbicidal effect rating, H: barnyard grass: 0 (Herbicidal rate of 5% or less (almost no effect))
Wild oat [5]
  herbicidal effect rating, I: wild oat: 0 (Herbicidal rate of 5% or less (almost no effect))
Blackgrass [6]
  herbicidal effect rating, J: blackgrass: 0 (Herbicidal rate of 5% or less (almost no effect))
Italian ryegrass [7]
  herbicidal effect rating, K: Italian ryegrass: 0 (Herbicidal rate of 5% or less (almost no effect))
Windgrass [8]
  herbicidal effect rating, L: windgrass: 0 (Herbicidal rate of 5% or less (almost no effect))
Velvetleaf [9]
  herbicidal effect rating, M: velvetleaf: 0 (Herbicidal rate of 5% or less (almost no effect))
Redroot pigweed [10]
  herbicidal effect rating, N: redroot pigweed: 0 (Herbicidal rate of 5% or less (almost no effect))
Lambsquarters [11]
  herbicidal effect rating, O: lambsquarters: 0 (Herbicidal rate of 5% or less (almost no effect))
Chickweed [12]
  herbicidal effect rating, P: chickweed: 3 (Herbicidal rate of 40% or more and less than 70%)
False cleavers [13]
  herbicidal effect rating, Q: false cleavers: 0 (Herbicidal rate of 5% or less (almost no effect))
Persian speedwell [14]
  herbicidal effect rating, R: persian speedwell: 4 (Herbicidal rate of 70% or more and less than 90%)
Southern crabgrass [15]
  herbicidal effect grade, F: southern crabgrass: 0 (Herbicidal rate of 5% or less (almost no effect))
Green foxtail [16]
  herbicidal effect grade, G: green foxtail: 0 (Herbicidal rate of 5% or less (almost no effect))
Barnyard grass [17]
  herbicidal effect grade, H: barnyard grass: 0 (Herbicidal rate of 5% or less (almost no effect))
Wild oat [18]
  herbicidal effect grade, I: wild oat: 1 (Herbicidal rate of 5% or more and less than 20%)
Blackgrass [19]
  herbicidal effect grade, J: blackgrass: 0 (Herbicidal rate of 5% or less (almost no effect))
Italian ryegrass [20]
  herbicidal effect grade, K: Italian ryegrass: 3 (Herbicidal rate of 40% or more and less than 70%)
Windgrass [21]
  herbicidal effect grade, L: windgrass: 0 (Herbicidal rate of 5% or less (almost no effect))
Velvetleaf [22]
  herbicidal effect grade, M: velvetleaf: 5 (Herbicidal rate of 90% or more (almost completely withered))
Redroot pigweed [23]
  herbicidal effect grade, N: redroot pigweed: 5 (Herbicidal rate of 90% or more (almost completely withered))
Lambsquarters [24]
  herbicidal effect grade, O: lambsquarters: 0 (Herbicidal rate of 5% or less (almost no effect))
Chickweed [25]
  herbicidal effect grade, P: chickweed: 4 (Herbicidal rate of 70% or more and less than 90%)
False cleavers [26]
  herbicidal effect grade, Q: false cleavers: 0 (Herbicidal rate of 5% or less (almost no effect))
Persian speedwell [27]
  herbicidal effect grade, R: persian speedwell: 4 (Herbicidal rate of 70% or more and less than 90%)
